Measured values taken from patent US8507499B2, “Substituted indole/indazole-pyrimidinyl compounds” (Confluence Life Sciences, Inc., priority 2010, dated 2013).
Where “and” joins values, the source holds several entries; their conditions need not be identical. Identical values can stand only once.

Target: p38/MK2 (Homo sapiens, UniProt Q16539)
Assay: p38α/MK2 cascade assay (phosphorylation of Hsp27 peptide, Caliper LabChip 3000)
Assay type: biochemical
Conditions: Hsp27 peptide 1 μM, MgATP 10 μM, two values printed in one cell
Procedure: The novel, MK2 substrate-selective inhibitory mechanism of compounds is evaluated in enzyme assays comparing inhibitor potency in blocking p38/MK2 versus p38/PRAK induced phosphorylation of an HSP-27 derived peptide substrate. The ability of compounds to inhibit activated phospho-p38α is evaluated using a p38α/MK2 and a p38α/PRAK cascade assay format. The kinase activity of p38α is determined by its ability to phosphorylate GST-MK2 or GST-PRAK. Activation of MK2 or PRAK by p38α is quantitated by measuring the phosphorylation of a fluorescently-labeled, MK2 specific peptide substrate, Hsp27 peptide (FITC-KKKALSRQLSVAA). The phosphorylation of the Hsp27 peptide is quantified using the Caliper LabChip 3000. Kinase reactions are carried out in a 384-well plate (Matrical, MP101-1-PP) in 20 mM HEPES pH 7.5, 10 mM MgCl2, 0.0005% Tween-20, 0.01% BSA, 1 mM DTT, and 2% DMSO. […] The p38α compound inhibitory potency is quantitated from dose-response IC50 values or Ki values from p38α/MK2 cascade assays while the substrate selectivity is calculated as a ratio of p38α/PRAK:p38α/MK2 IC50 values. Species compounds of Formula I, described hereinabove, evaluated in this assay, are expected to provide a therapeutic benefit in the treatment of p38 kinase mediated diseases, such as autoimmune diseases and lymphoma.

Sequence of p38/MK2 (Q16539 whole entry): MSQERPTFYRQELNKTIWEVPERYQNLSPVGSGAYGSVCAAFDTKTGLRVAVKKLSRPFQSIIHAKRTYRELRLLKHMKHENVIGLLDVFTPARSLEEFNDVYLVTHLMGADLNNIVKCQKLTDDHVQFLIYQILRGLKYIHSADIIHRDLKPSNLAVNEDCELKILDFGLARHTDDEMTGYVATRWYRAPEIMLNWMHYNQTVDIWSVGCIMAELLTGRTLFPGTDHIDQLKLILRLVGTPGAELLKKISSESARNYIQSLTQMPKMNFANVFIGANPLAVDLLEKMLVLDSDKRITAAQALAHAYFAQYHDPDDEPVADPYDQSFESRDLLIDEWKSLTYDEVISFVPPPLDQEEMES

Question: With CC(C)(C)c1nccc(-c2c[nH]c3cc(Cl)c(C(=O)N4CCC(Cc5ccc(F)cc5)CC4)cc23)n1 [Example 57, (3-(2-tert-Butyl-pyrimidin-4-yl)-6-chloro-1H-indol-5-yl)-(4-(4-fluorobenzyl)-piperidin-1-yl)-methanone] as the molecule, how does the IC50 read?
Answer: 2.89 µM and 3.86 µM
